Source: patent US20110209228A1, “METHOD OF TREATMENT USING ANTIMICROBIAL COMPOSITION” (priority 2008, published 2011)

How the values were obtained:
E. coli DH5α = assay: microbroth dilution method, peptide and antibiotic combination; assay type: cell-based
Procedure: To determine whether or not antimicrobial peptides as described herein act in a synergistic manner with antibiotic compounds, a microbroth dilution method was performed against E. coli DH5α performed according to the guidelines of the National Committee for Clinical Laboratory Standards.

E. coli TOP10 = assay: growth inhibition screen by expression of the peptide in host bacteria (pBAD/gIIIA, L-arabinose induction, OD600); assay type: cell-based; conditions: E. coli TOP10, OD600 before and 4 hours after L-arabinose induction
[1] = antibiotic alone (—), E. coli DH5α
[2] = in combination with SEQ ID NO: 7, E. coli DH5α
[3] = in combination with SEQ ID NO: 8, E. coli DH5α

Row | Molecule | antimicrobial activity: inhibiting bacterial growth and/or killing bacteria on expression (in words) (E. coli TOP10) | also measured
1 | O=C(N[C@H](CO)[C@H](O)c1ccc([N+](=O)[O-])cc1)C(Cl)Cl [Chloramphenicol] |  | MIC of antibiotic (E. coli DH5α; [1]): 4 µg/mL; MIC of antibiotic (E. coli DH5α; [2]): 1 µg/mL; MIC of antibiotic (E. coli DH5α; [3]): 2 µg/mL
2 | A10: antimicrobial peptide produced by mutagenesis based on SEQ ID NO: 7 and/or 8 (MVKRGFGKKLKKKAKKFRNSIRKRLKNFNVKIPVPLPG; Antimicrobial peptide A10) | having antimicrobial activity | 
3 | A6: antimicrobial peptide produced by mutagenesis based on SEQ ID NO: 7 and/or 8 (MVKRGLGKKLKKKPKKFRNSIKKRLKNFNIEIPIPRQG; Antimicrobial peptide A6) | having antimicrobial activity | 
4 | G10: peptide by mutagenesis based on a consensus sequence for antimicrobial C-terminal fragments of cathelicidin proteins (MVIRGLLKRGKGRILGLLGRNGKRLRAIMDMFRRRSQQ; Antimicrobial peptide G10) | having antimicrobial activity | 
5 | 5: antimicrobial peptide produced by mutagenesis based on SEQ ID NO: 7 and/or 8 (chain 1 SSRSAAGTIWEFEAF; chain 2 MVKRGLGKNLKRRATKIGNGIKNTLRNFNVVFPIPRPG; Consensus sequence of antimicrobial peptide; Antimicrobial peptide 5) [compound 5] | having antimicrobial activity | 
6 | H6: peptide by mutagenesis based on a consensus sequence for antimicrobial C-terminal fragments of cathelicidin proteins (MVIGDCLRRVRGSLENTVRDLNQGLGILRLRW; Antimicrobial peptide H6) | having antimicrobial activity | 
7 | B1: peptide by mutagenesis based on a consensus sequence for antimicrobial C-terminal fragments of cathelicidin proteins (MVLGDLLRRVGGKFEEFFGKIRETIRTIRICSHLLLRGSSRSAAGTIWEFEAF; Antimicrobial peptide B1) | having antimicrobial activity | 
8 | CC1(C)S[C@@H]2[C@H](NC(=O)[C@H](N)c3ccccc3)C(=O)N2[C@H]1C(=O)O [Ampicillin] |  | MIC of antibiotic (E. coli DH5α; [1]): 2 µg/mL; MIC of antibiotic (E. coli DH5α; [2]): 2 µg/mL; MIC of antibiotic (E. coli DH5α; [3]): 4 µg/mL
9 | F4: peptide by mutagenesis based on a consensus sequence for antimicrobial C-terminal fragments of cathelicidin proteins (MVLGGRSGKVRERFRRIFERYEAKIRTFMEILAAPSQD; Antimicrobial peptide F4) | having antimicrobial activity | 
10 | F7: peptide by mutagenesis based on a consensus sequence for antimicrobial C-terminal fragments of cathelicidin proteins (MVLGGFSRCRWLEEKLRDFMKNLVVRIAG; Antimicrobial peptide F7) | having antimicrobial activity | 
11 | A11: antimicrobial peptide produced by mutagenesis based on SEQ ID NO: 7 and/or 8 (MVKRGFGKKLRKRATKFRNSIRKRLKNFNIIFPVPRQG; Antimicrobial peptide A11) | having antimicrobial activity | 
12 | F12: peptide by mutagenesis based on a consensus sequence for antimicrobial C-terminal fragments of cathelicidin proteins (MVIGDRFKKFRERLVELRGRNGARLRPLMNIMGGRSAG; Antimicrobial peptide F12) | having antimicrobial activity | 
13 | A5: antimicrobial peptide produced by mutagenesis based on SEQ ID NO: 7 and/or 8 (MVKRGFWKKLKRKAKKFRNSIRKTLKNFNIIIPVPLPG; Antimicrobial peptide A5) | having antimicrobial activity | 
14 | G9: peptide by mutagenesis based on a consensus sequence for antimicrobial C-terminal fragments of cathelicidin proteins (MVLGGFLRNVRWEIWKKGLSLFCQISYFVVRSSSRSAAGTIWEFEAF; Antimicrobial peptide G9) | having antimicrobial activity | 
15 | 10: antimicrobial peptide produced by mutagenesis based on SEQ ID NO: 7 and/or 8 (MVKRGFGKRLRKRPKKFRNSIKKRLKNFNVVFPVPRPG; antimicrobial peptide A12) [compound 10] | having antimicrobial activity | 
16 | A12: antimicrobial peptide produced by mutagenesis based on SEQ ID NO: 7 and/or 8 (MVKRGFGKRLRKRPKKFRNSIKKRLKNFNVVFPVPRPG; antimicrobial peptide A12) | having antimicrobial activity | 
17 | 20: antimicrobial peptide produced by mutagenesis based on SEQ ID NO: 7 and/or 8 (MVKRGFGESLRRRVTKLRDDIKKH; Antimicrobial peptide 20) [compound 20] | having antimicrobial activity | 
18 | E3: peptide by mutagenesis based on a consensus sequence for antimicrobial C-terminal fragments of cathelicidin proteins (MVLGGCLRKGGGRLVGMFGRFRATLKNLLDMLGRRIEG; Antimicrobial peptide E3) | having antimicrobial activity | 
19 | 28: antimicrobial peptide produced by mutagenesis based on SEQ ID NO: 7 and/or 8 (chain 1 MVLGGFSRCRWLEEKLRDFMKNLVVRIAG; chain 2 MVKRGLGEKLRRRPKKFGIVLGIH; Antimicrobial peptide F7; Antimicrobial peptide 28) [compound 28] | having antimicrobial activity | 
20 | 13: antimicrobial peptide produced by mutagenesis based on SEQ ID NO: 7 and/or 8 (MVKRGFWKSLKRKLKKFGMILGID; Antimicrobial peptide 13) [compound 13] | having antimicrobial activity | 
21 | F6: peptide by mutagenesis based on a consensus sequence for antimicrobial C-terminal fragments of cathelicidin proteins (MVLRGFLKRFGGKILRNRGRDGATLKDFLKMIATRIPH; Antimicrobial peptide F6) | having antimicrobial activity | 
22 | CN(C)[C@@H]1C(O)=C(C(N)=O)C(=O)[C@@]2(O)C(O)=C3C(=O)c4c(O)cccc4[C@@](C)(O)[C@H]3C[C@@H]12 [Tetracycline] |  | MIC of antibiotic (E. coli DH5α; [1]): 2 µg/mL; MIC of antibiotic (E. coli DH5α; [2]): 0.25 µg/mL; MIC of antibiotic (E. coli DH5α; [3]): 0.5 µg/mL
23 | A4: antimicrobial peptide produced by mutagenesis based on SEQ ID NO: 7 and/or 8 (MVKRGFGKNLRRRPTKFRNSIRNRLKNFNIEFPVPRQG; Antimicrobial peptide A4) | having antimicrobial activity | 
24 | B6: peptide by mutagenesis based on a consensus sequence for antimicrobial C-terminal fragments of cathelicidin proteins (Antimicrobial peptide B6) MVGIVSGEFRGSFEKCVGGIDKSLGILRLSWDLVLRGILRLSWDLVLRGSSRSAAGTIWEFEAF | having antimicrobial activity | 
25 | 27: antimicrobial peptide produced by mutagenesis based on SEQ ID NO: 7 and/or 8 (Antimicrobial peptide F6; Antimicrobial peptide 27) chain 1: MVLRGFLKRFGGKILRNRGRDGATLKDFLKMIATRIPH chain 2: MVKRGFGKRLRRKATKLGMILRRH | having antimicrobial activity | 
